Laboratory results as given in patent publication US5041567A, “Antibacterial monic acid derivatives” (Beecham Group plc, priority 1982, dated 1991).
≈ marks a conversion by molar mass, not a printed value. Read-outs that look alike come from different tables or passages of the source.

Key:
[1] = test system: Sarcina lutea 8340; assay: MIC against human bacteria in vitro; type: cell-based; conditions: Sarcina lutea 8340, 5% chocolated horse blood agar, 18 hours
[2] = test system: M. suipneumoniae HK(2); assay: MIC against mycoplasma in vitro; type: cell-based
[3] = test system: Corynebacterium pyogenes CY1; assay: MIC against veterinary bacteria in vitro
Experimental: (§1) The activity of the compounds of the Examples against various veterinarily important bacteria, was assayed in vitro using two-fold serial dilutions in Diagnostic Sensitivity Test Agar inoculated with 10^4 organisms.

[4] = test system: M. suipneumoniae MS 16; assay: MIC against mycoplasma in vitro; type: cell-based; conditions: M. suipneumoniae MS 16, 6 days, 37° C.
[5] = test system: Ps. aeruginosa NCTC 10662; assay: MIC against human bacteria in vitro; type: cell-based; conditions: Ps. aeruginosa NCTC 10662, 5% chocolated horse blood agar, 18 hours
[6] = test system: E. coli ESS; assay: MIC against human bacteria in vitro; type: cell-based; conditions: E. coli ESS, 5% chocolated horse blood agar, 18 hours
[7] = test system: M. suipneumoniae TAM 6N; assay: MIC against mycoplasma in vitro; type: cell-based
[8] = test system: Staph. aureus 152 (pen. sens); assay: MIC against veterinary bacteria in vitro
Experimental: as §1

[9] = test system: M. suipneumoniae LABER; assay: MIC against mycoplasma in vitro; type: cell-based
[10] = test system: Bacillus subtilis 6633; assay: MIC against human bacteria in vitro; type: cell-based; conditions: Bacillus subtilis 6633, 5% chocolated horse blood agar, 18 hours
[11] = test system: Strep. pyogenes R80/421-A; assay: MIC against human bacteria in vitro; type: cell-based; conditions: Strep. pyogenes R80/421-A, 5% chocolated horse blood agar, 18 hours
[12] = test system: M. suipneumoniae NB12; assay: MIC against mycoplasma in vitro; type: cell-based; conditions: Mesomycoplasma hyopneumoniae
[13] = test system: M. hyorhinis ATCC 23234; assay: MIC against mycoplasma in vitro; type: cell-based
[14] = test system: K. aerogenes A; assay: MIC against human bacteria in vitro; type: cell-based; conditions: K. aerogenes A, 5% chocolated horse blood agar, 18 hours
[15] = test system: Strep. uberis SPU1; assay: MIC against veterinary bacteria in vitro
Experimental: as §1

[16] = test system: M. hyorhinis ATCC 25021; assay: MIC against mycoplasma in vitro; type: cell-based
[17] = test system: Strep. spp. 64/848-C; assay: MIC against human bacteria in vitro; type: cell-based; conditions: Strep. spp. 64/848-C, 5% chocolated horse blood agar, 18 hours
[18] = test system: M. suipneumoniae Str. 11; assay: MIC against mycoplasma in vitro; type: cell-based
[19] = test system: Haemophilus influenzae Wy21; assay: MIC against human bacteria in vitro; type: cell-based; conditions: Haemophilus influenzae Wy21, 5% chocolated horse blood agar, 18 hours
[20] = test system: Staph. aureus Oxford; assay: MIC against veterinary bacteria in vitro
Experimental: as §1

[21] = test system: M. suipneumoniae ATCC 25095; assay: MIC against mycoplasma in vitro; type: cell-based
[22] = test system: S. typhimurium S18; assay: MIC against veterinary bacteria in vitro
Experimental: as §1

[23] = test system: S. dublin S7; assay: MIC against veterinary bacteria in vitro
Experimental: as §1

[24] = test system: Strep. agalactiae 2788-B; assay: MIC against human bacteria in vitro; type: cell-based; conditions: Strep. agalactiae 2788-B, 5% chocolated horse blood agar, 18 hours
[25] = test system: Strep. dysgalactiae SPD1; assay: MIC against veterinary bacteria in vitro
Experimental: as §1

[26] = test system: Staph. aureus Russell; assay: MIC against human bacteria in vitro; type: cell-based; conditions: Staph. aureus Russell, 5% chocolated horse blood agar, 18 hours
[27] = test system: Erysipelothrix rhusiopathiae NCTC 8163; assay: MIC against veterinary bacteria in vitro
Experimental: as §1

[28] = test system: Strep. faecalis I; assay: MIC against human bacteria in vitro; type: cell-based; conditions: Strep. faecalis I, 5% chocolated horse blood agar, 18 hours
[29] = test system: Staph. aureus W2827; assay: MIC against human bacteria in vitro; type: cell-based; conditions: Staph. aureus W2827, 5% chocolated horse blood agar, 18 hours
[30] = test system: M. bovigenitalium ATCC 14173; assay: MIC against mycoplasma in vitro; type: cell-based
[31] = test system: Corynebacterium xerosis 9755; assay: MIC against human bacteria in vitro; type: cell-based; conditions: Corynebacterium xerosis 9755, 5% chocolated horse blood agar, 18 hours
[32] = test system: E. coli NCTC 10418; assay: MIC against human bacteria in vitro; type: cell-based; conditions: E. coli NCTC 10418, agar with 5% chocolated horse blood, 18 hours, 37° C.
[33] = test system: Past. multocida PA2; assay: MIC against veterinary bacteria in vitro; conditions: Pasteurella multocida, PA2, 18 h
Experimental: as §1

[34] = Micrococcus luteus, read-out: MIC
[35] = Mesomycoplasma hyopneumoniae, 144 h
[36] = Mesomycoplasma hyopneumoniae, MS16, 144 h, read-out: MIC
[37] = Pseudomonas aeruginosa, NCTC10662, read-out: MIC
[38] = Escherichia coli, read-out: MIC
[39] = Mesomycoplasma hyopneumoniae, TAM6N, 144 h
[40] = Streptococcus pyogenes, read-out: MIC
[41] = Mesomycoplasma hyorhinis, ATCC23234, 144 h
[42] = Klebsiella aerogenes, read-out: MIC
[43] = Streptococcus uberis, SPU1, 18 h
[44] = Mesomycoplasma hyorhinis, ATCC25021, 144 h
[45] = Mesomycoplasma hyopneumoniae, ATCC25095, 144 h
[46] = Salmonella enterica, TYPHIMURIUM, 18 h
[47] = Streptococcus agalactiae, read-out: MIC
[48] = Streptococcus dysgalactiae, SPD1, 18 h
[49] = Staphylococcus aureus, read-out: MIC
[50] = Erysipelothrix rhusiopathiae, NCTC8163, 18 h
[51] = Enterococcus faecalis, read-out: MIC
[52] = Escherichia coli, NCTC10418, read-out: MIC

SMILES: C/C(=C\c1ncc(CCCCCCCCO)o1)C[C@@H]1OC[C@H](C[C@@H]2O[C@H]2[C@@H](C)[C@H](C)O)[C@@H](O)[C@H]1O [Example 19, 5-(8-Hydroxyoctyl)-2-(1-normon-2-yl) oxazole A]
- MIC [1, 34]: 128 µg/mL (≈ 258 µM)
- MIC [2, 35]: 2.5 µg/mL (≈ 5.04 µM)
- MIC ([3]; CY1, 18 h): > 80 µg/mL
- MIC [4, 36]: 0.5 µg/mL (≈ 1.01 µM)
- MIC [5, 37]: > 128 µg/mL
- MIC [6, 38]: 16 µg/mL (≈ 32.3 µM)
- MIC [7, 39]: 2.5 µg/mL (≈ 5.04 µM)
- MIC ([8]; Staphylococcus aureus, 18 h): 1.25 µg/mL (≈ 2.52 µM)
- MIC [9, 35]: 1 µg/mL (≈ 2.02 µM)
- MIC ([10]; read-out: MIC): 4 µg/mL (≈ 8.07 µM)
- MIC [11, 40]: 2 µg/mL (≈ 4.04 µM)
- MIC ([12]; NB12, 144 h): 1 µg/mL (≈ 2.02 µM)
- MIC [13, 41]: 1 µg/mL (≈ 2.02 µM)
- MIC [14, 42]: > 128 µg/mL
- MIC [15, 43]: 0.625 µg/mL (≈ 1.26 µM)
- MIC [16, 44]: 1 µg/mL (≈ 2.02 µM)
- MIC ([17]; read-out: MIC): 16 µg/mL (≈ 32.3 µM)
- MIC ([18]; Mesomycoplasma hyopneumoniae, STR.11, 144 h): 1 µg/mL (≈ 2.02 µM)
- MIC ([19]; read-out: MIC): 4 µg/mL (≈ 8.07 µM)
- MIC ([20]; Staphylococcus aureus, 18 h): 2.5 µg/mL (≈ 5.04 µM)
- MIC [21, 45]: 1 µg/mL (≈ 2.02 µM)
- MIC [22, 46]: > 80 µg/mL
- MIC ([23]; Salmonella enterica, S7, 18 h): > 80 µg/mL
- MIC [24, 47]: 16 µg/mL (≈ 32.3 µM)
- MIC [25, 48]: 2.5 µg/mL (≈ 5.04 µM)
- MIC [26, 49]: 4 µg/mL (≈ 8.07 µM)
- MIC [27, 50]: > 80 µg/mL
- MIC [28, 51]: > 128 µg/mL
- MIC [29, 49]: 4 µg/mL (≈ 8.07 µM)
- MIC ([30]; 144 h): 0.1 µg/mL (≈ 0.202 µM)
- MIC ([31]; read-out: MIC): 128 µg/mL (≈ 258 µM)
- MIC [32, 52]: > 128 µg/mL

SMILES: C/C(=C\c1ncc(-c2ccc(S(=O)(=O)N(C)C)cc2)o1)C[C@@H]1OC[C@H](C[C@@H]2O[C@H]2[C@@H](C)[C@H](C)O)[C@@H](O)[C@H]1O [Example 24, 5-p-Dimethylaminosulphonylphenyl-2-(1-normon-2-yl)oxazole A]
- MIC [1, 34]: > 128 µg/mL
- MIC [2, 35]: 0.25 µg/mL (≈ 0.454 µM)
- MIC ([3]; CY1, 18 h): 80 µg/mL (≈ 145 µM)
- MIC [4, 36]: 0.1 µg/mL (≈ 0.182 µM)
- MIC [5, 37]: > 64 µg/mL
- MIC [6, 38]: 4 µg/mL (≈ 7.26 µM)
- MIC [7, 39]: 0.25 µg/mL (≈ 0.454 µM)
- MIC ([8]; Staphylococcus aureus, 18 h): 0.625 µg/mL (≈ 1.13 µM)
- MIC ([10]; read-out: MIC): 4 µg/mL (≈ 7.26 µM)
- MIC [33]: 2.5 µg/mL (≈ 4.54 µM)
- MIC [11, 40]: 2 µg/mL (≈ 3.63 µM)
- MIC ([12]; 144 h, M. suipneumoniae NB12, Friis broth, 0.9% agarose, 6 days, 37° C., read-out: MIC): 0.1 µg/mL (≈ 0.182 µM)
- MIC [13, 41]: 0.1 µg/mL (≈ 0.182 µM)
- MIC [14, 42]: > 64 µg/mL
- MIC [15, 43]: 0.312 µg/mL (≈ 0.567 µM)
- MIC [16, 44]: 0.1 µg/mL (≈ 0.182 µM)
- MIC ([17]; read-out: MIC): 4 µg/mL (≈ 7.26 µM)
- MIC ([18]; Mesomycoplasma hyopneumoniae, 144 h, M. suipneumoniae Str. 11, 6 days, 37° C., read-out: MIC): 0.1 µg/mL (≈ 0.182 µM)
- MIC ([19]; read-out: MIC): 4 µg/mL (≈ 7.26 µM)
- MIC ([20]; Staphylococcus aureus, 18 h): 1.25 µg/mL (≈ 2.27 µM)
- MIC [21, 45]: 0.1 µg/mL (≈ 0.182 µM)
- MIC [22, 46]: > 80 µg/mL
- MIC ([23]; Salmonella enterica, S7, 18 h): > 80 µg/mL
- MIC [24, 47]: 2 µg/mL (≈ 3.63 µM)
- MIC [25, 48]: 0.625 µg/mL (≈ 1.13 µM)
- MIC [26, 49]: 4 µg/mL (≈ 7.26 µM)
- MIC [27, 50]: 40 µg/mL (≈ 72.6 µM)
- MIC [28, 51]: > 128 µg/mL
- MIC [29, 49]: 4 µg/mL (≈ 7.26 µM)
- MIC ([30]; 144 h): 0.1 µg/mL (≈ 0.182 µM)
- MIC ([31]; read-out: MIC): > 128 µg/mL
- MIC [32, 52]: > 64 µg/mL

SMILES: CC(=Cc1cnc(-c2ccccc2)o1)CC1OCC(CC2OC2C(C)C(C)O)C(O)C1O (centres unmarked) [Example 35, 5-(1-Normon-2-yl)-2-phenyloxazole A]
- MIC [1]: > 128 µg/mL
- MIC ([2]; M. suipneumoniae HK(2), 6 days, 37° C.): > 10 µg/mL
- MIC ([3]; Corynebacterium pyogenes CY1, Diagnostic Sensitivity Test Agar, 18 hours): > 80 µg/mL
- MIC [4]: > 10 µg/mL
- MIC [5]: > 128 µg/mL
- MIC [6]: 128 µg/mL (≈ 289 µM)
- MIC ([7]; M. suipneumoniae TAM 6N, 6 days, 37° C.): > 10 µg/mL
- MIC ([8]; Staph. aureus 152 (pen. sens), Diagnostic Sensitivity Test Agar, 18 hours): > 80 µg/mL
- MIC ([9]; M. suipneumoniae LABER, 6 days, 37° C.): > 10 µg/mL
- MIC [10]: > 128 µg/mL
- MIC [11]: > 128 µg/mL
- MIC ([13]; M. hyorhinis ATCC 23234, 6 days, 37° C.): > 10 µg/mL
- MIC [14]: > 128 µg/mL
- MIC ([15]; Strep. uberis SPU1, Diagnostic Sensitivity Test Agar, 18 hours): 80 µg/mL (≈ 180 µM)
- MIC ([16]; M. hyorhinis ATCC 25021, 6 days, 37° C.): > 10 µg/mL
- MIC [17]: > 128 µg/mL
- MIC ([18]; M. suipneumoniae Str. 11, 6 days, 37° C.): > 10 µg/mL
- MIC [19]: 128 µg/mL (≈ 289 µM)
- MIC ([20]; Staph. aureus Oxford, Diagnostic Sensitivity Test Agar, 18 hours): > 80 µg/mL
- MIC ([21]; M. suipneumoniae ATCC 25095, 6 days, 37° C.): > 10 µg/mL
- MIC ([22]; S. typhimurium S18, Diagnostic Sensitivity Test Agar, 18 hours): > 80 µg/mL
- MIC ([23]; S. dublin S7, Diagnostic Sensitivity Test Agar, 18 hours): > 80 µg/mL
- MIC [24]: > 128 µg/mL
- MIC ([25]; Strep. dysgalactiae SPD1, Diagnostic Sensitivity Test Agar, 18 hours): > 80 µg/mL
- MIC [26]: > 128 µg/mL
- MIC ([27]; Erysipelothrix rhusiopathiae NCTC 8163, Diagnostic Sensitivity Test Agar, 18 hours): > 80 µg/mL
- MIC [28]: > 128 µg/mL
- MIC [29]: > 128 µg/mL
- MIC ([30]; M. bovigenitalium ATCC 14173, 6 days, 37° C.): 5.0 µg/mL (≈ 11.3 µM)
- MIC [31]: > 128 µg/mL
- MIC [32]: > 128 µg/mL
